Measurements from US12023333B2, “Phenyl-sulfamoyl.benzoyc acids as ERAP1 modulators” (GREY WOLF THERAPEUTICS LIMITED, priority 2019, dated 2024).

Target: T1, Purified ERAP1(37-941)-10His (ERAP1) (Homo sapiens, UniProt Q9NZ08)
T1 construct: Purified ERAP1(37-941)-10His (ERAP1); 10His (C)
Test: ERAP1 mediated hydrolysis of an amide substrate measured in a biochemical system (10-mer decapeptide substrate)
Details: 10-mer substrate, 23° C. for 1 h, excitation 279 nm and emission 355 nm; read-out: IC50 vs Decapeptide WRVYEKC(Dnp)ALK-acid (where Dnp is Dinitrophenyl maleimide) (10-mer)
Summary of the method: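 ERAP1(37-941)-10His preincubated with compound in 25 mM Bis-tris propane, 0.05% HPMC, pH 7.75, then reacted 1 h at 23 °C with 10-mer WRVYEKC(Dnp)ALK (100 μM solution added in equal volume). Fluorescence read at ex 279/em 355 nm; IC50 from 4-parameter fit.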

T1 sequence (Q9NZ08 37-941): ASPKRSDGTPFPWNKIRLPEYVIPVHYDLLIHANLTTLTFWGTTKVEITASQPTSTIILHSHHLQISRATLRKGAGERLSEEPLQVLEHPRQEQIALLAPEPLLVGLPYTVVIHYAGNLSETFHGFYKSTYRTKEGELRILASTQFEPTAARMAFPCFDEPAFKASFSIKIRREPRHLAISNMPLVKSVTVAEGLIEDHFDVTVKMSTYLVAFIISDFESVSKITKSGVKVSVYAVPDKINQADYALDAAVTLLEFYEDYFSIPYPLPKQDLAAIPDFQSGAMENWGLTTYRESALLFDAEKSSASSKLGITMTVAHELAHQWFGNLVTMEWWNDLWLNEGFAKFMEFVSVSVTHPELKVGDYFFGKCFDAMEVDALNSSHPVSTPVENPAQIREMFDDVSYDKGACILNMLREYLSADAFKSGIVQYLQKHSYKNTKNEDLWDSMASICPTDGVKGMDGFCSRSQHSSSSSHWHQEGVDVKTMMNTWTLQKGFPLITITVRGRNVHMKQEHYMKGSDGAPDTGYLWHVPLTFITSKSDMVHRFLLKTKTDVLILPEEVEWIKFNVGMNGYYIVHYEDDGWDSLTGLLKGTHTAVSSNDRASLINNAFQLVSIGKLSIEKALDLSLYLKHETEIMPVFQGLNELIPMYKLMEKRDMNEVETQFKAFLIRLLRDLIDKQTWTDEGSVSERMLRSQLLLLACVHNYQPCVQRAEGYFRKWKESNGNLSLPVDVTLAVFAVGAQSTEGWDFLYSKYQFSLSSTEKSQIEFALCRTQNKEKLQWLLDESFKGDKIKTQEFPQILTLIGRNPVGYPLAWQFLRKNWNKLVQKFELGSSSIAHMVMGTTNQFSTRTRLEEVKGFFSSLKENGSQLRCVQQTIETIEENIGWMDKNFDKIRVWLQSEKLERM

Row | IC50 [µM] | Structure (SMILES)
1 | < 0.5 | COc1ccc(C(=O)O)cc1S(=O)(=O)Nc1cc(C(F)(F)F)ccc1-c1ccc(F)s1 [Example 117, 3-(N-(2-(5-fluorothiophen-2-yl)-5-(trifluoromethyl)phenyl)sulfamoyl)-4-methoxybenzoic acid]
2 | < 0.5 | Cn1nccc1-c1cc(NS(=O)(=O)c2cc(C(=O)O)ccc2C2CC2)c(-c2ccccn2)cc1Cl [Example 188, 3-(N-(4-chloro-5-(1-methylpyrazol-5-yl)-2-(pyridin-2-yl)phenyl)sulfamoyl)-4-cyclopropylbenzoic acid]
3 | < 0.5 | Cc1sncc1-c1ccc(-c2ccccc2)c(NS(=O)(=O)c2cc(C(=O)O)ccc2C2CC2)c1 [Example 148, 4-cyclopropyl-3-(N-(4-(5-methylisothiazol-4-yl)-[1,1′-biphenyl]-2-yl)sulfamoyl)benzoic acid]
4 | < 0.5 | N#Cc1ccc(-c2ccc(C#N)s2)c(NS(=O)(=O)c2cc(C(=O)O)ccc2C2CC2)c1 [Example 126, 3-(N-(5-cyano-2-(5-cyanothiophen-2-yl)phenyl)sulfamoyl)-4-cyclopropylbenzoic acid]
5 | < 0.5 | O=C(O)c1ccc(C2CC2)c(S(=O)(=O)Nc2cc(-c3ccns3)ccc2-c2cccs2)c1 [Example 146, 4-cyclopropyl-3-(N-(5-(isothiazol-5-yl)-2-(thiophen-2-yl)phenyl)sulfamoyl)benzoic acid]
6 | < 0.5 | Cc1cc(C#N)cc(NS(=O)(=O)c2cc(C(=O)O)ccc2C2CC2)c1-c1ccccn1 [Example 176, 3-(N-(5-cyano-3-methyl-2-(pyridin-2-yl)phenyl)sulfamoyl)-4-cyclopropylbenzoic acid]
7 | < 0.5 | N#Cc1cc(NS(=O)(=O)c2cc(C(=O)O)ccc2C2CC2)c(-c2cscn2)cc1F [Example 196, 3-(N-(5-cyano-4-fluoro-2-(thiazol-4-yl)phenyl)sulfamoyl)-4-cyclopropylbenzoic acid]
8 | < 0.5 | Cc1sncc1-c1ccc(-c2ccccn2)c(NS(=O)(=O)c2cc(C(=O)O)ccc2C2CC2)c1 [Example 144, 4-cyclopropyl-3-(N-(5-(5-methylisothiazol-4-yl)-2-(pyridin-2-yl)phenyl)sulfamoyl)benzoic acid]
9 | < 0.5 | COc1ccc(C(=O)O)cc1S(=O)(=O)Nc1cc(C(F)(F)F)ccc1-c1cccc(Cl)c1 [Example 46, 3-(N-(3′-chloro-4-(trifluoromethyl)-[1,1′-biphenyl]-2-yl)sulfamoyl)-4-methoxybenzoic acid]
10 | < 0.5 | CS(=O)(=O)c1ccc(-c2ccc(F)s2)c(NS(=O)(=O)c2cc(C(=O)O)ccc2C2CC2)c1 [Example 116, 4-cyclopropyl-3-(N-(2-(5-fluorothiophen-2-yl)-5-(methylsulfonyl)-phenyl)sulfamoyl)benzoic acid]
11 | < 0.5 | CCc1ccc(C(=O)O)cc1S(=O)(=O)Nc1cc(C#N)ccc1-c1ccccn1 [Example 38, 3-(N-(5-cyano-2-(pyridin-2-yl)phenyl)sulfamoyl)-4-ethylbenzoic acid]
12 | < 0.5 | O=C(O)c1ccc(C2CC2)c(S(=O)(=O)Nc2cc(C(F)(F)F)ccc2-c2ccccn2)c1 [Example 72, 4-cyclopropyl-3-(N-(2-(pyridin-2-yl)-5-(trifluoromethyl)phenyl)sulfamoyl)benzoic acid]
13 | > 5 | COc1ccc(C(=O)O)cc1S(=O)(=O)Nc1cc(C(F)(F)F)ccc1-n1cncn1 [Example 28, 3-(N-(2-(1,2,4-triazol-1-yl)-5-(trifluoromethyl)phenyl)sulfamoyl)-4-methoxybenzoic acid]
14 | < 0.5 | CCc1ccc(C(=O)O)cc1S(=O)(=O)Nc1cc(C#N)ccc1-c1ccc(Cl)s1 [Example 91, 3-(N-(2-(5-chlorothiophen-2-yl)-5-cyanophenyl)sulfamoyl)-4-ethylbenzoic acid]
15 | < 0.5 | CCc1ccc(C(=O)O)cc1S(=O)(=O)Nc1cc(C#N)ccc1-c1ccc(C#N)s1 [Example 118, 3-(N-(5-cyano-2-(5-cyanothiophen-2-yl)phenyl)sulfamoyl)-4-ethylbenzoic acid]
16 | < 5 | CC(C)(C)c1ccc(C(=O)O)cc1S(=O)(=O)Nc1cc(C#N)ccc1-c1ccccn1 [Example 173, 4-(tert-butyl)-3-(N-(5-cyano-2-(pyridin-2-yl)phenyl)sulfamoyl) benzoic acid]
17 | < 0.5 | Cc1sncc1-c1ccc(-c2cccc(F)c2)c(NS(=O)(=O)c2cc(C(=O)O)ccc2C2CC2)c1 [Example 136, 4-cyclopropyl-3-(N-(3′-fluoro-4-(5-methylisothiazol-4-yl)-[1,1′-biphenyl]-2-yl)sulfamoyl)benzoic acid]
18 | < 0.5 | O=C(O)c1ccc(C2CC2)c(S(=O)(=O)Nc2cc(-n3cnnn3)c(F)cc2-n2cccc2)c1 [Example 207, 4-cyclopropyl-3-(N-(4-fluoro-2-(pyrrol-1-yl)-5-(tetrazol-1-yl)phenyl)sulfamoyl)benzoic acid]
19 | < 0.5 | CCc1ccc(C(=O)O)cc1S(=O)(=O)Nc1cc(C#N)ccc1-c1cccc(C#N)c1 [Example 42, 3-(N-(3′,4-dicyano-[1,1′-biphenyl]-2-yl)sulfamoyl)-4-ethylbenzoic acid]

Row | IC50 [µM] | Structure (SMILES)
20 | < 0.5 | O=C(O)c1ccc(C2CC2)c(S(=O)(=O)Nc2cc(C(F)(F)F)ccc2-c2ccccc2)c1 [Example 55, 4-cyclopropyl-3-(N-(4-(trifluoromethyl)-[1,1′-biphenyl]-2-yl)sulfamoyl) benzoic acid]
21 | < 0.5 | COc1ccc(C(=O)O)cc1S(=O)(=O)Nc1cc(C(F)(F)F)ccc1-c1cccc(F)c1 [Example 15, 3-(N-(3′-fluoro-4-(trifluoromethyl)-[1,1′-biphenyl]-2-yl)sulfamoyl)-4-methoxybenzoic acid]
22 | < 0.5 | CCc1ccc(C(=O)O)cc1S(=O)(=O)Nc1cc(C(F)(F)F)ccc1-c1ccc[nH]1 [Example 69, 3-(N-(2-(pyrrol-2-yl)-5-(trifluoromethyl)phenyl)sulfamoyl)-4-ethylbenzoic acid]
23 | < 0.5 | Cc1sncc1-c1ccc(-c2cccnc2)c(NS(=O)(=O)c2cc(C(=O)O)ccc2C2CC2)c1 [Example 138, 4-cyclopropyl-3-(N-(5-(5-methylisothiazol-4-yl)-2-(pyridin-3-yl)phenyl)sulfamoyl)benzoic acid]
24 | < 0.5 | CCc1ccc(C(=O)O)cc1S(=O)(=O)Nc1cc(C(F)(F)F)ccc1-c1ccc(F)s1 [Example 67, 4-ethyl-3-(N-(2-(5-fluorothiophen-2-yl)-5-(trifluoromethyl)phenyl)sulfamoyl)benzoic acid]
25 | < 0.5 | O=C(O)c1ccc(C2CC2)c(S(=O)(=O)Nc2cc(-c3ccns3)ccc2-n2cccc2)c1 [Example 143, 4-cyclopropyl-3-(N-(5-(isothiazol-5-yl)-2-(pyrrol-1-yl)phenyl)sulfamoyl)benzoic acid]
26 | < 0.5 | COc1ccc(C(=O)O)cc1S(=O)(=O)Nc1cc(C(F)(F)F)c(F)cc1-n1cccc1 [Example 162, 3-(N-(4-fluoro-2-(pyrrol-1-yl)-5-(trifluoromethyl)phenyl)sulfamoyl)-4-methoxybenzoic acid]
27 | < 0.5 | CCc1ccc(C(=O)O)cc1S(=O)(=O)Nc1cc(C#N)ccc1-c1cccnc1 [Example 57, 3-(N-(5-cyano-2-(pyridin-3-yl)phenyl)sulfamoyl)-4-ethylbenzoic acid]
28 | < 0.5 | N#Cc1ccc(-c2ccccc2)c(NS(=O)(=O)c2cc(C(=O)O)ccc2C2CC2)c1 [Example 96, 3-(N-(4-cyano-[1,1′-biphenyl]-2-yl)sulfamoyl)-4-cyclopropylbenzoic acid]
29 | < 0.5 | N#Cc1ccc(-c2ccccn2)c(NS(=O)(=O)c2cc(C(=O)O)ccc2C2CCC2)c1 [Example 168, 3-(N-(5-cyano-2-(pyridin-2-yl)phenyl)sulfamoyl)-4-cyclobutylbenzoic acid]
30 | < 0.5 | CS(=O)(=O)c1ccc(-c2cccc(F)c2)c(NS(=O)(=O)c2cc(C(=O)O)ccc2C2CC2)c1 [Example 93, 4-cyclopropyl-3-(N-(3′-fluoro-4-(methylsulfonyl)-[1,1′-biphenyl]-2-yl)sulfamoyl)benzoic acid]
31 | < 0.5 | CCc1ccc(C(=O)O)cc1S(=O)(=O)Nc1cc(C#N)ccc1-n1cccc1 [Example 107, 3-(N-(5-cyano-2-(pyrrol-1-yl)phenyl)sulfamoyl)-4-ethylbenzoic acid]
32 | < 0.5 | CCc1ccc(C(=O)O)cc1S(=O)(=O)Nc1cc(-n2cnnn2)ccc1-c1cccc(C#N)c1 [Example 56, 3-(N-(3′-cyano-4-tetrazol-1-yl-[1,1′-biphenyl]-2-yl)sulfamoyl)-4-ethylbenzoic acid]
33 | < 0.5 | Cc1sncc1-c1ccc(-c2ccc(F)s2)c(NS(=O)(=O)c2cc(C(=O)O)ccc2C2CC2)c1 [Example 142, 4-cyclopropyl-3-(N-(2-(5-fluorothiophen-2-yl)-5-(5-methylisothiazol-4-yl)phenyl)sulfamoyl)benzoic acid]
34 | < 0.5 | COc1ccc(C(=O)O)cc1S(=O)(=O)Nc1cc(C#N)ccc1-c1ccc(C)s1 [Example 81, 3-(N-(5-cyano-2-(5-methylthiophen-2-yl)phenyl)sulfamoyl)-4-methoxybenzoic acid]
35 | > 5 | COc1ccc(C(=O)O)cc1S(=O)(=O)Nc1cc(C(F)(F)F)ccc1-c1ccncc1 [Example 14, 4-methoxy-3-(N-(2-(pyridin-4-yl)-5-(trifluoromethyl)phenyl)sulfamoyl)benzoic acid]
36 | < 0.5 | O=C(O)c1ccc(C2CC2)c(S(=O)(=O)Nc2cc(-c3cn[nH]c3)ccc2-c2ccccn2)c1 [Example 145]
37 | < 0.5 | N#Cc1ccc(-c2ncccc2F)c(NS(=O)(=O)c2cc(C(=O)O)ccc2C2CC2)c1 [Example 152, 3-(N-(5-cyano-2-(3-fluoropyridin-2-yl)phenyl)sulfamoyl)-4-cyclopropylbenzoic acid]
38 | < 0.5 | Cn1nccc1-c1cc(NS(=O)(=O)c2cc(C(=O)O)ccc2C2CC2)c(-n2cccc2)cc1Cl [Example 200, 3-(N-(4-chloro-5-(1-methylpyrazol-5-yl)-2-(pyrrol-1-yl)phenyl)sulfamoyl)-4-cyclopropylbenzoic acid]
